In one data set the target is T1, pepsin (Sus scrofa, UniProt P00791).
T1 construct: purchased Sigma-Aldrich Ireland Ltd
Briefly: Enzyme degradation of lacticin 3147 by pepsin (activity, MALDI-TOF, RP-HPLC). The settings on record: 25 mg/ml pepsin, 3 h, 37 °C, pH 2.29; then growth curve at 400 nM peptides. The data set is classed as in vitro ADME. Here is the method:
(§1) Lacticin 3147 production was confirmed by matrix-assisted laser desorption ionization-time of flight (MALDI-TOF) mass spectrometry using sinapinic acid as the matrix. About 0.7 μl of the matrix solution (sinapinic acid, 4 mg/ml in 50% acetone/50% methanol) was added to the target plate and left to evaporate (30 s) at ambient conditions. Individual peptides (Ltnα or Ltnβ) were resuspended in 70% IPA and mixed at a 1:1 volume ratio with a 10-mg/ml stock solution of sinapinic acid in 60% ACN with 0.1% TFA. About 0.3 μl of this peptide-matrix solution was then added to the matrix layer previously applied to the plate and evaporated at ambient conditions. The plate was inserted into a MALDI-TOF Ultraflex mass spectrometer (Bruker) and analysed using reflectron positive 700–3500 Da mode. 100 shots were fired at 88% intensity. This method was also used for the analyses of samples from the enzyme degradation studies.
All lacticin 3147 samples were filtered through a 0.2-µm PES filter before analysis by RP-HPLC using an Agilent 1200 Infinity Series HPLC (Agilent Technologies, USA). The HPLC separations were carried out on an Aeris 3.6 µm Peptide 100 Å 250 × 4.6 mm, liquid chromatography column with a flow rate of 0.8 ml/min, and with 0.1% trifluoroacetic acid (TFA) in water as aqueous phase-A and 0.1% TFA in acetonitrile (ACN) as organic phase-B. The total run time was 51 min. The mobile phase started with 30:70 A:B for 3 min and change linearly to 35:65 A:B over 30 min. The organic phase was then adjusted to 100% within 1 min and continued to flow for 5 min. After this, the mobile phase returned to the initial ratio to stabilize the chromatographic system. The detector was set at 214 nm. The peak area (mAU) was plotted against the concentration (1.56–500 µg/ml) to make a calibration curve. The coefficients of determination (R^2 values) were 0.9963 and 0.9983 for Ltnα and Ltnβ respectively. This method was subsequently used for quantitative analysis of Ltnα and Ltnβ.
(§2) Trypsin and α-chymotrypsin stock solutions (50 mg/ml) were resuspended in water. Pepsin (50 mg/ml) was resuspended in 0.02 M HCL. About 1 mg/ml individual solutions of Ltnα and Ltnβ in 70% IPA were filtered and diluted (1 in 20) in sterile PBS to give a final peptide concentration of 50 µg/ml. After this, 5.3 µl Ltnα and 4.6 µl Ltnβ were added to the same well of a 96-well plate. The pH of the lacticin 3147-pepsin solution was 2.29. Control wells consisting of Ltnα and Ltnβ together, Ltnα alone, and Ltnβ alone with no enzyme were included. The 96-well plate was incubated for 3 h at 37 °C to allow the enzyme to act. After incubation, the wells were filled to 50 μl with PBS and 150 μl of diluted bacterial cell culture (L. monocytogenes at an OD of 0.1) was added to each well. The final peptide concentration of 400 nM (1.31 µg/ml Ltnα, 1.14 µg/ml Ltnβ) was obtained when the wells were filled to 200 µl. Blanks were set up in triplicate with media only and PBS only. The three control wells were also set up with bacterial culture and each enzyme only. […] The effect of the proteases pepsin, α-chymotrypsin, and trypsin on the lacticin 3147 peptides was determined by MALDI-TOF mass spectrometry. […] After 3 h, 1 µl was removed from each sample and it was analysed by MALDI-TOF mass spectrometry. […]
Pepsin’s effect on lacticin 3147 was also investigated by RP-HPLC. […] After incubation, aliquots were taken, filtered, and analysed by RP-HPLC to determine if pepsin degrades Ltnα or Ltnβ to any extent.

In the next data set the target is T2, α-chymotrypsin (Bos taurus, UniProt P00766).
T2 construct: purchased Sigma-Aldrich Ireland Ltd
Description: Enzyme degradation of lacticin 3147 by α-chymotrypsin (activity, MALDI-TOF). The format is in vitro ADME. The settings on record: 25 mg/ml α-chymotrypsin, 3 h, 37 °C; then growth curve at 400 nM peptides. Here is the method:
as §1
as §2, with “µl.” for “µl. Blanks were set up in triplicate with media only and PBS only. The three control wells were also set up with bacterial culture and each enzyme only.”

Data set [1] deals with L. monocytogenes ATCC1916. Briefly: Well diffusion assay, lacticin 3147 SLNs vs free peptide. The settings on record: 6-mm wells, 12.5 µL α + 12.5 µL β component, 0.2 µm filtered, free peptide in water at the total peptide content of the SLNs, mean ± SD. The data set is classed as cell-based. As for the experimental part: The activity of the lacticin 3147 SLNs was evaluated using the well diffusion assay method, on TSA supplemented with 6 g/L yeast. The inhibition zones were reported in millimetre (mm) using electronic Vernier callipers. […] Wells were bored in the agar after it hardened using a sterile 6-mm cork borer. α-SLN and β-SLN were filtered using a 0.2-μm PES filter (SLNs can pass through), and 12.5 μL of each was added to the same well. The blank SLNs were used as negative controls (25 μL). […] The free peptides were filtered again using a 0.2-μm PES filter before addition to the wells to ensure sterility. All tests were performed in triplicate.

For data set [2], the system named is L. monocytogenes ATCC1916. Description: Well diffusion assay after incubation with α-chymotrypsin. The data set is classed as cell-based. Here is the method:
α-SLN and β-SLN were filtered using a 0.2-µm PES filter, and 25 µl of each were added to the same well of a 96-well plate. About 50 µl of a 50 mg/ml solution of α-chymotrypsin was added to these wells. A blank was set up with 50-µl water instead of α-chymotrypsin. This was repeated for free peptide solutions prepared as outlined above. The 96-well plate was incubated for 3 h at 37 °C. The 96-well plate was then removed from the incubator, and 25 µl of each solution was added in triplicate to 6-mm wells on TSA (6 g/L yeast) plates inoculated with 200 µl L. monocytogenes ATCC1916. The plates were incubated at 37 °C for 24 h, after which the inhibition zones were measured using an electronic Vernier callipers.

T1 sequence (P00791 60-385): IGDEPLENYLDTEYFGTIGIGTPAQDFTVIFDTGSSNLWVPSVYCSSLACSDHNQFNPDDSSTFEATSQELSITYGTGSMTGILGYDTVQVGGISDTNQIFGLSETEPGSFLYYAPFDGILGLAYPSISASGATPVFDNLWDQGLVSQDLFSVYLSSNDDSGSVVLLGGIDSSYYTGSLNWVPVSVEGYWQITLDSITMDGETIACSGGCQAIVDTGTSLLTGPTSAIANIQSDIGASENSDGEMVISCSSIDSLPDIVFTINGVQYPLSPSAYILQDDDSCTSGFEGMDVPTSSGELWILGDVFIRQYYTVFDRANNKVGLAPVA

For the substance lacticin 3147, the “activity against L. monocytogenes ATCC 1916 after incubation with pepsin” value at pepsin is reported as “remains active”. Further, at α-chymotrypsin, the “activity against L. monocytogenes ATCC 1916 after incubation with α-chymotrypsin” value is “growth curve similar to that of the bacterial control”. Besides, the zone of inhibition in data set [1] is given as 12.9 ± 0.3 mm. Besides, the “zone of inhibition after incubation with α-chymotrypsin, single well” value is recorded as 6 mm in data set [2] (Fig. 11, first value printed in the picture of the plate); 6.1 mm in data set [2] (Fig. 11, second value printed in the picture of the plate); 6 mm in data set [2] (Fig. 11, third value printed in the picture of the plate).

What is called zone of inhibition is the size of the clear area around the sample on an inoculated plate.

The record behind these values is PMC8236048, “Pharmaceutical design of a delivery system for the bacteriocin lacticin 3147” (Drug Delivery and Translational Research, 2021).
